The assay addresses T1, Androgen receptor of prostate of rats (Rattus norvegicus, UniProt P15207).
T1 construct: The prostates were removed, weighed and homogenized at 0° C; from tissue; host or cells: rat prostate, 105,000 g supernatant (castrated male Sprague-Dawley rats)
T1 sequence (P15207 1-902): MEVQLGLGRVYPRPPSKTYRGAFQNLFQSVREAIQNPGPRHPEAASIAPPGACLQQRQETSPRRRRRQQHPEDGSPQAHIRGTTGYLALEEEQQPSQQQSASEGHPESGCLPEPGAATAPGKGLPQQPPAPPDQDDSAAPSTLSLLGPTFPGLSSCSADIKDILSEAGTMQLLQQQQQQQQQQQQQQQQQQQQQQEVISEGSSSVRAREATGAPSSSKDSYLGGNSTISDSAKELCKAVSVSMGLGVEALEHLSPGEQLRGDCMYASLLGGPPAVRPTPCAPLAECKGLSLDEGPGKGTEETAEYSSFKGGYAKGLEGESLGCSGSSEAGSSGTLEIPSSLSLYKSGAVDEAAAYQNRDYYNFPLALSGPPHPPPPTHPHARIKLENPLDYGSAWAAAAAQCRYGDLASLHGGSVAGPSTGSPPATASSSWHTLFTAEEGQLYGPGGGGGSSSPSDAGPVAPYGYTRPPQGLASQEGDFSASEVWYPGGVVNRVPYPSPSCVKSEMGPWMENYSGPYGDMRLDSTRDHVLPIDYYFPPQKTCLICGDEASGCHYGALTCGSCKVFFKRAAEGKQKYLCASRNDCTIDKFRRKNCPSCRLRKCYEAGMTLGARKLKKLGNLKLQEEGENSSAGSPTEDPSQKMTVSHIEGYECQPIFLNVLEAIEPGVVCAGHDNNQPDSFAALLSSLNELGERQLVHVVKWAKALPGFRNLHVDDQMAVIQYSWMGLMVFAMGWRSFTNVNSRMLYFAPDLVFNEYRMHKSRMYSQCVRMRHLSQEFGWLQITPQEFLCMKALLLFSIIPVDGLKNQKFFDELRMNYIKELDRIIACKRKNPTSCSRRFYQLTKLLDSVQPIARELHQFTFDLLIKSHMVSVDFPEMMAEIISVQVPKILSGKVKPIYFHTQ
Nature of the assay: Androgen receptor binding (displacement of tritiated product P). Particulars: for affinity for androgen receptors (in words): conclusion. As for the experimental part: B. Androgen receptor of prostate of rats
Male Sprague-Dawley EPOS rats weighing of 160 to 200 g were castrated and 24 hours later, the animals were killed. The prostates were removed, weighed and homogenized at 0° C. with a polytetrafluoroethylene-glass Potter with a buffered TS solution (Tris, 10 mM, 0.25M Saccharose, HCl-pH of 7.4) using 1 g of tissue per 5 ml of TS. The homogenate was then ultracentrifuged at 105,000 g for 60 […] (T) of product P or 17α-methyl-Δ^4,9,11 -estratriene-17β-ol-3-one in the presence of increasing concentration (0-1,000×10^-9 M) of either cold P, cold testosterone or the test compound. The concentration of tied tritiated (B) was measured for each incubate by the technique of adsorption on carbon-dextran.
The calculation of the relative affinity of […] (ARL) was identical for all of the above receptor tests. One traced the following two curves: the percentage of tied tritiated hormone B/T as a function of the logarithm of the cold hormone concentration and B/T as a function of the logarithm of the concentration of the cold test product. One determined the line of the equation. [formula]
The intersection of the I50 line and the curves permits one to determine the concentrations of the cold hormone of the reference (CH) and the cold test compound (CX) which inhibit by 50% the tieing of tritiated hormone with the receptor. The relative affinity of tieing (ARL) of the test product was determined by the equation: [formula]

Setting [1] is: second table, incubation 24 H at 0° C.

Some results are limits rather than exact numbers.

Results on 15 molecules are retold here after patent publication US5043332A, “Novel 11β-substituted -19-nor-steriods” (priority 1981, dated 1991).

With `C=CC[C@]1(O)CC[C@H]2[C@@H]3CCC4=CC(=O)CCC4=C3[C@@H](c3ccc(N(C)C)cc3)C[C@@]21C` [Example 37, 11β-[4-(N,N-dimethylamino)-phenyl]-17α-(prop-2-enyl)-Δ^4,9-estradien-17β-ol-3-one], the “affinity for androgen receptors (in words)” value (“affinity … (in words)” for short) was “slightly moderate affinity”. Also, the “relative affinity of tieing (ARL), Androgen” value (from here on “relative affinity of tieing”) under setting [1] was 8.

In the case of `CC#C[C@]1(O)CC[C@H]2[C@@H]3CCC4=CC(=O)[C@H](C)CC4=C3[C@@H](c3ccc(N(C)C)cc3)C[C@@]21C` [Example 5, 2α-methyl-11β-(4-dimethylaminophenyl)-17α-(prop-1-ynyl)-Δ^4,9-estradiene-17β-ol-3-one], the “affinity … (in words)” value is reported as “slightly moderate affinity”.

`C=C(C)C#C[C@]1(O)CC[C@H]2[C@@H]3CCC4=CC(=O)CCC4=C3[C@@H](c3ccc(N(C)C)cc3)C[C@@]21C` [Example 23, 11β-[4-(N,N-dimethylamino)-phenyl]-23-methyl-19,21-dinor-17α-Δ^4,9,23-cholatriene-20-yn-17β-ol-3-one]: the “relative affinity of tieing” value under setting [1] is recorded as 14,7.

Regarding `CN(C)c1ccc([C@H]2C[C@@]3(C)[C@@H](CC[C@@]3(O)C#Cc3ccccc3)[C@@H]3CCC4=CC(=O)CCC4=C32)cc1` [Example 29, 11β-[4-(N,N-dimethylamino)-phenyl]-21-phenyl-19-nor-17α-Δ^4,9-pregnadiene-20-yne-17β-ol-3-one], the “relative affinity of tieing” value under setting [1] was determined as 0.

Regarding `CC#C[C@]1(O)CC[C@H]2[C@@H]3CCC4=CC(=O)[C@H](C)CC4=C3[C@@H](c3ccc(N(C)C)cc3)C[C@@]21C` [5 (2α), 2α-methyl-11β-(4-dimethylaminophenyl)-17α-(prop-1-ynyl)-Δ^4,9-estradiene-17β-ol-3-one], the “relative affinity of tieing” value was 0,5 (incubation 1/2H at 0° C.) and 0,4 (incubation 24 H at 0° C.).

Regarding `CN(C)c1ccc([C@H]2C[C@@]3(C)[C@@H](CC[C@@]3(O)C#C[Si](C)(C)C)[C@@H]3CCC4=CC(=O)CCC4=C32)cc1` [Example 44, 11β-[4-(N,N-dimethylamino)-phenyl]-21-trimethylsilyl-19-nor-17α-Δ^4,9-pregnadiene-20-yne-17β-ol-3-one], under setting [1], the “relative affinity of tieing” value is on record as 4,6.

For the molecule `CC#C[C@]1(O)CC[C@H]2[C@@H]3CCC4=CC(=O)C(C#N)(C#N)CC4=C3[C@@H](c3ccc(N(C)C)cc3)C[C@@]21C` [Example 9, 2,2-dicyano-11β-(4-dimethylaminophenyl)-17α-(prop-1-ynyl)-Δ^4,9-estradiene-17β-ol-3-one], the “relative affinity of tieing” value (incubation 1/2H at 0° C.) is listed as < 0,1 and the “relative affinity of tieing” value (incubation 24 H at 0° C.) was < 0,1.

For `CC#C[C@]1(O)CC[C@H]2[C@@H]3CCC4=CC(=O)CCC4=C3[C@@H](c3ccc([N+](C)(C)[O-])cc3)C[C@@]21C` [Example 35, N-oxide of 11β-[4-(N,N-dimethylamino)-phenyl]-17α-(prop-1-ynyl)-Δ^4,9-estradiene-17β-ol-3-one], the “relative affinity of tieing” value under setting [1] is 2,2.

For the molecule `CC#C[C@]1(OC(C)=O)CC[C@H]2[C@@H]3CCc4cc(O)ccc4[C@H]3[C@@H](c3ccc(N(C)C)cc3)C[C@@]21C` [2 (17 OAc), 11β-(4-dimethylaminophenyl)-17α-(prop-1-ynyl)-17β-acetoxy-Δ^1,3,5(10) -estratriene-3-ol], the “relative affinity of tieing” value was < 0,1 (incubation 1/2H at 0° C.) and < 0,1 (incubation 24 H at 0° C.).

For the molecule `CC#C[C@]1(O)CC[C@H]2[C@@H]3CCC4=CC(=O)[C@@H](C)CC4=C3[C@@H](c3ccc(N(C)C)cc3)C[C@@]21C` [5 (2β), 2-methyl-11β-(4-dimethylaminophenyl)-17α-(prop-1-ynyl)-Δ^4,9-estradiene-17β-ol-3-one], the “relative affinity of tieing” value by setting is: (incubation 1/2H at 0° C.) 0,7; (incubation 24 H at 0° C.) 0,5.

As to `C[C@]12C[C@H](c3ccc([N+](C)(C)[O-])cc3)[C@]34O[C@]35CCC(=O)C=C5CC[C@H]4[C@@H]1CC[C@@]2(O)C#CCl` [Example 27, N-oxide of 11β-[4-(N,N-dimethylamino)-phenyl]-9α,10α-epoxy-21-chloro-19-nor-17α-Δ^4-pregnene-20-yne-17β-ol-3-one], under setting [1], the “relative affinity of tieing” value was 2,8.

Turning to `CN(C)c1ccc([C@H]2C[C@@]3(C)[C@@H](CC[C@@]3(O)C#CCl)[C@@H]3CCC4=CC(=O)CCC4=C32)cc1` [Example 25, 11β-[4-(N,N-dimethylamino)-phenyl]-21-chloro-19-nor-17α-Δ^4,9-pregnadiene-20-yne-17β-ol-3-one], the “affinity … (in words)” value is reported as “slightly moderate affinity”. In addition, the “relative affinity of tieing” value under setting [1] amounted to 32.

For `C[C@]12C[C@H](c3ccc([N+](C)(C)[O-])cc3)C3=C4CCC(=O)C=C4CC[C@H]3[C@@H]1CC[C@@]2(O)C#CCl` [Example 26, N-oxide of 11β-[4-(N,N-dimethylamino)-phenyl]-21-chloro-19-nor-17α-Δ^4,9-pregnadiene-20-yne-17β-ol-3-one], under setting [1], the “relative affinity of tieing” value is reported as 9,8.

In the case of `C#C[C@@]1(O)CC[C@H]2[C@@H]3CCC4=CC(=O)CCC4=C3[C@@H](c3ccc(N(C)C)cc3)C[C@@]21C` [Example 21, 11β-[4-(N,N-dimethylamino)-phenyl]-17β-ethynyl-Δ^4,9-estradiene-17α-ol-3-one], the “relative affinity of tieing” value under setting [1] is reported as 7,3.

Turning to `C#C[C@]1(O)CC[C@H]2[C@@H]3CCC4=CC(=O)CCC4=C3[C@@H](c3ccc(N(C)C)cc3)C[C@@]21C` [Example 32, 11β-[4-(N,N-dimethylamino)-phenyl]-17α-ethynyl-Δ^4,9-estradiene-17β-ol-3-one], the “affinity … (in words)” value is on record as “slightly moderate affinity”. Further, the “relative affinity of tieing” value under setting [1] was found to be 68.
